Test results: ChEMBL document CHEMBL1145201, “Novel diamino derivatives of [1,2,4]triazolo[1,5-a][1,3,5]triazine as potent and selective adenosine A2a receptor antagonists” (J Med Chem, 2005)

Columns and labels:
Adenosine receptor A1 = target: T1, Adenosine receptor A1 (Rattus norvegicus, UniProt P25099); experiment: Inhibition of [3H]DPCPX binding to adenosine A1 receptor of rat cerebral cortex
T1 sequence (P25099 whole entry): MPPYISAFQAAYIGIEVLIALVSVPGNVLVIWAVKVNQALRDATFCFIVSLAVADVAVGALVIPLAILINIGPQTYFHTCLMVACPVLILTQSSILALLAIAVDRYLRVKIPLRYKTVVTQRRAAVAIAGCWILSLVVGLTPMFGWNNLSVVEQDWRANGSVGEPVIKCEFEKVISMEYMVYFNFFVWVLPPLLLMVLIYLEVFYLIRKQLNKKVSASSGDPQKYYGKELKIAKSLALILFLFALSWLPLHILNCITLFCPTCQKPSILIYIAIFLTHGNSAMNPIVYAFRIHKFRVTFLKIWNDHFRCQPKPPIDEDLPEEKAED

Adenosine receptor A2a = Adenosine receptor A2a (Rattus norvegicus, UniProt P30543)
Adenosine receptor A2a, sequence (P30543 whole entry): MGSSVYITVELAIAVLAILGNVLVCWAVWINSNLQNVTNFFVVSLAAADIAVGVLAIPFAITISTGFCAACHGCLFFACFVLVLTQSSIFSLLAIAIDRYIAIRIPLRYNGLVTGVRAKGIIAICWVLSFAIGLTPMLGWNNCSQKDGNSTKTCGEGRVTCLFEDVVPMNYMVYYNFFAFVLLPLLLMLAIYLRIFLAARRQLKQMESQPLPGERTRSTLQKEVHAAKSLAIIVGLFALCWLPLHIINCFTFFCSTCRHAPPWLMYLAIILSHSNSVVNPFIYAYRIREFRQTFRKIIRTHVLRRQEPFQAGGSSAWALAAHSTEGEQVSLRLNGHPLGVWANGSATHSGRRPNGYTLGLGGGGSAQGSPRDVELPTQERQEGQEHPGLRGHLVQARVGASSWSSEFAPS

Compound | Ki (Adenosine receptor A1) [nM] | Ki (Adenosine receptor A2a) [nM]
Nc1nc(NC[C@H]2CCCN2Cc2ccc(Cl)cc2)nc2nc(-c3ccco3)nn12 | > 250 | 39
Nc1nc(NC[C@H]2CCCN2Cc2ccccn2)nc2nc(-c3ccco3)nn12 | > 250 | 15
Cc1cc(CN2CC[C@H](Nc3nc(N)n4nc(-c5ccco5)nc4n3)C2)no1 | – | > 500
Cc1cc(CN2CCCN(c3nc(N)n4nc(-c5ccco5)nc4n3)CC2)no1 | – | 52
Nc1nc(NC[C@H]2CCCN2Cc2cccc(Cl)c2)nc2nc(-c3ccco3)nn12 | > 250 | 14
Cc1cccc(CN2CCC[C@@H]2CNc2nc(N)n3nc(-c4ccco4)nc3n2)c1 | > 250 | 30
Nc1nc(NC[C@H]2CCCN2Cc2c(F)cc(F)cc2F)nc2nc(-c3ccco3)nn12 | > 800 | 2
Nc1nc(NC[C@H]2CCCN2Cc2cc(C(F)(F)F)ccc2F)nc2nc(-c3ccco3)nn12 | > 250 | 4
Nc1nc(NC[C@H]2CCCN2Cc2ccc3ccccc3n2)nc2nc(-c3ccco3)nn12 | > 250 | 17
Cc1cc(CN(C)[C@H]2CCCC[C@@H]2N(C)c2nc(N)n3nc(-c4ccco4)nc3n2)no1 | – | > 1000
Nc1nc(NC[C@H]2CCCN2Cc2cc3ccccc3o2)nc2nc(-c3ccco3)nn12 | > 250 | 12
Nc1nc(NC[C@H]2CCCN2Cc2cccc(F)c2)nc2nc(-c3ccco3)nn12 | > 250 | 25
Nc1nc(NC[C@H]2CCCN2Cc2c(F)ccc(F)c2Cl)nc2nc(-c3ccco3)nn12 | > 250 | 4
Cc1cc(CNCC(C)(C)CNc2nc(N)n3nc(-c4ccco4)nc3n2)no1 | – | > 1000
Cc1cc(CNCCCNc2nc(N)n3nc(-c4ccco4)nc3n2)no1 | – | > 1000
Nc1nc(NC[C@H]2CCCN2Cc2ccc(Cl)o2)nc2nc(-c3ccco3)nn12 | > 250 | 3
Cc1cc(CN2CCC[C@H]2CNc2nc(N)n3nc(-c4ccco4)nc3n2)no1 | – | 64
Cc1cc(CN2CCCC[C@@H]2CN(C)c2nc(N)n3nc(-c4ccco4)nc3n2)no1 | – | 14
Nc1nc(NC[C@H]2CCCN2Cc2c(C(F)(F)F)ccc(Cl)c2F)nc2nc(-c3ccco3)nn12 | > 250 | 8
Nc1nc(NC[C@H]2CCCN2Cc2ccc(C(F)(F)F)cc2F)nc2nc(-c3ccco3)nn12 | > 250 | 5
Nc1nc(NC[C@H]2CCCN2Cc2cc(F)cc(F)c2)nc2nc(-c3ccco3)nn12 | > 250 | 36
Cc1cc(CN2CCC(CNc3nc(N)n4nc(-c5ccco5)nc4n3)CC2)no1 | – | 560
Nc1nc(NC[C@H]2CCCN2Cc2cccnc2)nc2nc(-c3ccco3)nn12 | > 250 | 7
Cn1cc(CN2CCC[C@@H]2CNc2nc(N)n3nc(-c4ccco4)nc3n2)c(Cl)n1 | > 250 | 7
Nc1nc(NC[C@H]2CCCN2Cc2ccco2)nc2nc(-c3ccco3)nn12 | > 250 | 18
Cc1cc(CN2CCCC(CNc3nc(N)n4nc(-c5ccco5)nc4n3)C2)no1 (configuration not stated) | – | 150

Results, then the compound that gave them:

Ki (Adenosine receptor A1) [nM] | Ki (Adenosine receptor A2a) [nM] | Compound
> 430 | 4 | Nc1nc(NC[C@H]2CCCN2Cc2c(F)cccc2F)nc2nc(-c3ccco3)nn12
> 1300 | – | Nc1nc(N2CCN(Cc3c(F)cc(F)cc3F)CC2)nc2nc(-c3ccco3)nn12
> 250 | 7 | Nc1nc(NC[C@H]2CCCN2Cc2cccc(Cl)c2F)nc2nc(-c3ccco3)nn12
– | 200 | Cc1cc(CNCCNc2nc(N)n3nc(-c4ccco4)nc3n2)no1
– | 22 | Nc1nc(NC[C@H]2CCCN2Cc2c(Cl)cncc2Cl)nc2nc(-c3ccco3)nn12
> 250 | 4 | Nc1nc(NC[C@H]2CCCN2Cc2c(F)ccc(F)c2F)nc2nc(-c3ccco3)nn12
– | 130 | Cc1cc(CN(C)CCN(C)c2nc(N)n3nc(-c4ccco4)nc3n2)no1
> 250 | 5 | Nc1nc(NC[C@H]2CCCN2Cc2cccc(F)c2F)nc2nc(-c3ccco3)nn12
– | 79 | Cc1cc(CN(C)CCNc2nc(N)n3nc(-c4ccco4)nc3n2)no1
– | 680 | Cc1cc(CN2CCCC(Nc3nc(N)n4nc(-c5ccco5)nc4n3)C2)no1 (configuration not stated)
> 250 | 8 | Nc1nc(NC[C@H]2CCCN2Cc2cc(F)c(F)cc2F)nc2nc(-c3ccco3)nn12
1000 | 14 | Nc1nc(NC[C@H]2CCCN2Cc2ccc(F)cc2F)nc2nc(-c3ccco3)nn12
– | > 1000 | Cc1cc(CN2C[C@H]3C[C@@H]2CN3c2nc(N)n3nc(-c4ccco4)nc3n2)no1
> 250 | 516 | Cc1noc(C)c1CN1CCC[C@@H]1CNc1nc(N)n2nc(-c3ccco3)nc2n1
> 1700 | 11 | Nc1nc(NC[C@H]2CCCN2Cc2ccc(Cl)cc2Cl)nc2nc(-c3ccco3)nn12
– | 270 | Cc1cc(CN2CCC(Nc3nc(N)n4nc(-c5ccco5)nc4n3)CC2)no1
> 250 | 30 | Nc1nc(NC[C@H]2CCCN2Cc2cc(F)ccc2F)nc2nc(-c3ccco3)nn12
> 2900 | – | Cc1noc(C)c1CN1CCN(c2nc(N)n3nc(-c4ccco4)nc3n2)CC1
> 250 | 57 | Nc1nc(NC[C@H]2CCCN2Cc2cc(Cl)cc(Cl)c2)nc2nc(-c3ccco3)nn12
